Several values for one entry are separate records, joined by “and”; a condition that tells them apart may be missing. Identical values can stand only once. Residues, ends and D or L forms follow the SMILES beside them.
Tests used:
[1] = tested on: Collagen I (type I collagen); assay: Collagen I elevation effect in fibroblasts (ELISA); format: cell-based, human; design: Collagen I elevation effect in the fibroblasts: unit not given here; conditions: 1 µM, 24 h; for Collagen I elevation effect in the fibroblasts: ELISA, Blank control (BC) 35.6; for type I collagen (Collagen I) content compared to the BC: result in words
Description: (§1) B. Collagen I (type I collagen) elevation effect in fibroblasts, hyaluronic acid (HA) elevation effect in fibroblasts, and elastin (ELN) elevation effect in fibroblasts
(§2) Test materials: Fibroblasts of human origin (Guangdong Boxi Biotechnology Co., Ltd., Lot No. Fb20081902), DMEM culture medium (Gibco, 23042301, expiration date 230522), PBS (Solarbio, P1010), TGF-β1 (Peprotech, 230504), Collagen I ELISA Kit (Cusabio, B21025824), Elastin ELISA kit (Abcam, GR3446070-2), HA ELISA kit (RD, P325066). CO2 incubator (Thermo, 1501), super-clean bench (AIRTECH, SW-CJ-1F), microplate reader (BioTek, Epoch).
(§3) Test methods: • 1) Inoculation: After cell resuscitation, the cells were inoculated into 6-well plates when the plating rate reached around 60%, and were incubated overnight in an incubator (37°C, 5% CO2). • 2) Formulation of solutions: The cyclic peptide compounds in the sample group, PC2 (Biotinoyl-GHK, [drawing 2] ) and PC3 [drawing 3] in the positive reference group were all at the concentration of 1 µM, and the test substance working solutions were formulated. Only the cell culture medium was added for the blank control group (BC). • 3) Administration: When the cell plating rate in the 6-well plates reached 40% to 60%, administration was performed at 2 mL per well. 3 duplicate wells were set for each group. Incubation was performed in an incubator (37°C, 5% CO2) for 24 h. • 4) ELISA assay: The ELISA assay was performed according to the instructions of the ELISA kit, with the detection indicators being Collagen I elevation effect in the fibroblasts, HA elevation effect in the fibroblasts, and elastin elevation effect in the fibroblasts.

elastin (ELN) = assay: Elastin (ELN) elevation effect in fibroblasts (ELISA); format: cell-based, human; design: Elastin elevation effect in the fibroblasts: unit not given here; conditions: 1 µM, 24 h; for Elastin elevation effect in the fibroblasts: ELISA, Blank control (BC) 756.52; for elastin content compared to the BC: result in words
Description: as §1, §2, §3

hyaluronic acid (HA) = assay: Hyaluronic acid (HA) elevation effect in fibroblasts (ELISA); format: cell-based, human; design: HA elevation effect in the fibroblasts: unit not given here; conditions: 1 µM, 24 h; for HA elevation effect in the fibroblasts: ELISA, Blank control (BC) 1402.44; for hyaluronic acid (HA) content compared to the BC: result in words
Description: as §1, §2, §3

[2] = tested on: Fibroblasts of human origin; assay: Fibroblast cytotoxicity test (MTT); format: cell-based; conditions: Positive control 10% DMSO, 24 h, 1440 min
Method: A. Fibroblast cytotoxicity test
Test materials: Fibroblasts of human origin (Guangdong Boxi Biotechnology Co., Ltd., Lot No. Fb20081902), DMEM culture medium (Gibco, 23042301, expiration date on 230522), PBS (Solarbio, P1010), MTT (Sigma, M5655), DMSO (Sigma, D4540-1L), CO2 incubator (Thermo, 150I), super-clean bench (AIRTECH, SW-CJ-1F), inverted microscope (Olympus, CKX53).
Test methods: • 1) Cell inoculation: After cell resuscitation, the cells were inoculated into 96-well plates when the plating rate reached around 60%, and were incubated overnight in an incubator (37°C, 5% CO2). • 2) Test grouping: The blank group, solvent control group, positive control group, and sample group were set for the test. In the sample group, 7 concentration gradients were set for each sample and 3 duplicate wells were set for each concentration gradient. • 3) Formulation of solutions: Sample working solutions at different concentrations were formulated based on the test concentrations of 0.0781 µM, 0.1563 µM, 0.3125 µM, 0.625 µM, 1.25 µM, 2.5 µM, and 5 µM. • 4) Administration: Administration was performed when the cell plating rate in the 96-well plates reached 50% to 60%. 200 µL of culture medium per well was added for the solvent control group; 200 µL of culture medium containing 10% DMSO per well was added for the positive control group; 200 µL of culture medium containing the sample at a corresponding concentration per well was added for the sample group; The blank group had no cell inoculation, for which only 200 µL of cell culture medium was added. After the administration was complete, the 96-well plates were incubated in an incubator (37°C, 5% CO2) for 24 h. • 5) Detection: After 24 h of cell incubation and culture, the supernatant was discarded, and MTT working solution (0.5 mg/mL) was added. Incubation was performed at 37°C for 4 h in the dark. After the incubation was completed, the supernatant was discarded and 150 µL DMSO was added to each well. The OD value was read at 490 nm. • 6) Calculation of relative viability of cells: Calculation was performed according to the formula below: Relative viability of cells = (Sample well OD−Blank well OD)/(Solvent control well OD−Blank well OD) × 100%. [formula]

Row | Compound | Collagen I elevation effect in the fibroblasts [1] | type I collagen (Collagen I) content compared to the BC [1] | Elastin elevation effect in the fibroblasts (elastin (ELN)) | elastin content compared to the BC (elastin (ELN)) | HA elevation effect in the fibroblasts (hyaluronic acid (HA)) | hyaluronic acid (HA) content compared to the BC (hyaluronic acid (HA)) | Relative viability of cells [2]
1 | CSCC[C@@H]1NC(=O)[C@H](CCCCN)NC(=O)[C@H](Cc2c[nH]cn2)NC(=O)CNC(=O)[C@@H]2CCCN2C(=O)CNC1=O [compound 340] (cyclo(GHKMGP)) | 90.07 | significant increase | 1304.87 | significant increase |  |  | 
2 | CC[C@H](C)[C@@H]1NC(=O)[C@H](CC(C)C)NC(=O)[C@H](CCCCN)NC(=O)[C@H](Cc2c[nH]cn2)NC(=O)CNC(=O)[C@@H]2CCCN2C1=O [compound 268] (cyclo(GHKLIP)) | 61.46 | significant increase |  |  |  |  | 
3 | CC[C@H](C)[C@@H]1NC(=O)[C@H](CCCCN)NC(=O)[C@H](Cc2c[nH]cn2)NC(=O)CNC(=O)[C@@H]2CCCN2C(=O)[C@H](Cc2ccccc2)NC1=O [compound 214] (cyclo(FPGHKI)) | 42.51 | significant increase | 1050.82 | significant increase | 1965.3 | significant increase | 
4 | CC[C@H](C)[C@@H]1NC(=O)[C@H](CCCCN)NC(=O)[C@H](Cc2c[nH]cn2)NC(=O)CNC(=O)[C@@H]2CCCN2C(=O)[C@H](CC(C)C)NC1=O [compound 196] (cyclo(GHKILP)) |  |  | 1175.6 | significant increase | 2305.13 | significant increase | 
5 | CC(C)C[C@@H]1NC(=O)[C@H](CCCCN)NC(=O)[C@H](Cc2c[nH]cn2)NC(=O)CNC(=O)[C@@H]2CCCN2C(=O)[C@H](C)NC1=O [compound 250] (cyclo(APGHKL)) | 55.85 | significant increase | 1051.64 | significant increase | 2142.56 | significant increase | 
6 | CC(C)[C@@H]1NC(=O)[C@H](C)NC(=O)[C@H](Cc2ccccc2)NC(=O)[C@H](CCCCN)NC(=O)[C@H](Cc2c[nH]cn2)NC(=O)CNC1=O [compound 414] (cyclo(AVGHKF)) | 40.54 | significant increase | 1124.58 | significant increase | 1926.61 | significant increase | 
7 | CC(C)C[C@@H]1NC(=O)[C@H](CCCCN)NC(=O)[C@H](Cc2c[nH]cn2)NC(=O)CNC(=O)[C@H](C(C)C)NC(=O)[C@H](Cc2ccccc2)NC1=O [compound 297] (cyclo(FVGHKL)) | 52.28 | significant increase | 923.52 | significant increase | 2212.6 | significant increase | 
8 | CC[C@H](C)[C@@H]1NC(=O)[C@H](Cc2ccccc2)NC(=O)[C@H](CC(C)C)NC(=O)[C@H](CCCCN)NC(=O)[C@H](Cc2c[nH]cn2)NC(=O)CNC1=O [compound 291] (cyclo(FIGHKL)) |  |  | 1177.19 | significant increase | 2477.91 | significant increase | 
9 | CC(C)C[C@@H]1NC(=O)[C@H](CCCCN)NC(=O)[C@H](Cc2c[nH]cn2)NC(=O)CNC(=O)[C@H](C)NC(=O)[C@H](Cc2ccccc2)NC1=O [compound 289] (cyclo(AGHKLF)) | 41 | significant increase | 1034.59 | significant increase | 1978.48 | significant increase | 
10 | CSCC[C@@H]1NC(=O)[C@@H]2CCCN2C(=O)[C@H](C(C)C)NC(=O)[C@H](CCCCN)NC(=O)[C@H](Cc2c[nH]cn2)NC(=O)CNC1=O [compound 707] (cyclo(GHKVPM)) | 66.21 | significant increase |  |  |  |  | 
11 | C[C@@H]1NC(=O)[C@H](CCCCN)NC(=O)[C@H](Cc2c[nH]cn2)NC(=O)CNC(=O)[C@@H]2CCCN2C(=O)[C@H](Cc2ccccc2)NC1=O [compound 52] (cyclo(AFPGHK)) |  |  | 1043.27 | significant increase | 2900.83 | significant increase | 
12 | CC[C@H](C)[C@@H]1NC(=O)[C@H](CCCCN)NC(=O)[C@H](Cc2c[nH]cn2)NC(=O)CNC(=O)[C@@H]2CCCN2C(=O)[C@H](CCSC)NC1=O [compound 205] (cyclo(GHKIMP)) | 49.25 | significant increase | 1074.17 | significant increase | 2641.21 | significant increase | 
13 | CC(C)[C@@H]1NC(=O)[C@H](CCCCN)NC(=O)[C@H](Cc2c[nH]cn2)NC(=O)CNC(=O)[C@H](Cc2c[nH]c3ccccc23)NC(=O)[C@@H]2CCCN2C1=O [compound 710] (cyclo(GHKVPW)) | 110.87 | significant increase | 1207.29 | significant increase |  |  | 
14 | C[S+](C)[O-] [10% DMSO, DMSO] |  |  |  |  |  |  | 0.30% and 1.87% and 1.62% and 1.17% and 0.61% and 2.07% and 0.54% and 0.43%
15 | CC[C@H](C)[C@@H]1NC(=O)[C@H](CCCCN)NC(=O)[C@H](Cc2c[nH]cn2)NC(=O)CNC(=O)[C@@H]2CCCN2C(=O)[C@H](Cc2c[nH]c3ccccc23)NC1=O [compound 232] (cyclo(GHKIWP)) | 67.93 | significant increase | 1001.84 | significant increase |  |  | 
